# Laboratory results as given in ChEMBL document CHEMBL1201862, “PubChem BioAssay data set” (2004).
#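 Grown in 96-well plates, cells were treated for 48 hours with each compound at five concentrations. Insufficient inhibition: endpoint recorded as highest concentration tested. GI50: concentration for 50% inhibition of growth.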 Activity calls are given as the source filed them. No stated cut-off is given here; in the data, active = GI50 up to about 1.1 µM and inactive = higher.
# Experiments:
# Test in all cases: DTP human tumour cell line panel, 48 h
# [1] = system: IGROV-1
# [2] = system: UACC-62
# [3] = system: A549
# [4] = system: SNB-19
# [5] = system: HOP-62
# [6] = system: CCRF-CEM
# [7] = system: HCT-116
# [8] = system: Malme-3M
# [9] = system: HCC 2998
# [10] = system: EKVX
# [11] = system: BT-549
# [12] = system: SF-539
# [13] = system: MDA-N
# [14] = system: SK-MEL-28
# [15] = system: 786-0
# [16] = system: OVCAR-4
# [17] = system: MOLT-4
# [18] = system: PC-3
# [19] = system: UACC-257
# [20] = system: COLO 205
# [21] = system: SF-268
# [22] = system: NCI-H23
# [23] = system: NCI-H226
# [24] = system: MDA-MB-231
# [25] = system: T47D
# [26] = system: U-251
# [27] = system: HOP-92
# [28] = system: MDA-MB-435
# [29] = system: Hs-578T
# [30] = system: HL-60
# [31] = system: HCT-15
# [32] = system: RXF 393
# [33] = system: KM12
# [34] = system: NCI/ADR-RES
# [35] = system: SN12C
# [36] = system: SK-OV-3
# [37] = system: MCF7
# [38] = system: ACHN
# [39] = system: UO-31
# [40] = system: OVCAR-8
# [41] = system: SK-MEL-2
# [42] = system: DU-145
# [43] = system: K562
# [44] = system: SK-MEL-5
# [45] = system: SNB-75
# [46] = system: OVCAR-5
# [47] = system: RPMI-8226
# [48] = system: M14
# [49] = system: SF-295
# [50] = system: CAKI-1
# [51] = system: HT-29
# [52] = system: A498
# [53] = system: SW-620
# [54] = system: LOX IMVI
# [55] = system: NCI-H460
# [56] = system: OVCAR-3
# [57] = system: TK-10
# [58] = system: NCI-H522
structure (smiles),measurement,setting,value
Cc1c(C#N)c(=N)oc2ccccc12,GI50,[1],> 100 µM (inactive)
same,GI50,[2],> 100 µM (inactive)
same,GI50,[3],> 100 µM (inactive)
same,GI50,[4],> 100 µM (inactive)
same,GI50,[5],88.9 µM (inactive)
same,GI50,[6],> 10 µM (inactive)
same,GI50,[7],> 100 µM (inactive)
same,GI50,[8],> 100 µM (inactive)
same,GI50,[9],> 100 µM (inactive)
same,GI50,[10],49.8 µM (inactive)
same,GI50,[11],> 100 µM (inactive)
same,GI50,[12],> 100 µM (inactive)
same,GI50,[13],> 100 µM (inactive)
same,GI50,[14],> 100 µM (inactive)
same,GI50,[15],> 100 µM (inactive)
same,GI50,[16],> 100 µM (inactive)
same,GI50,[17],> 100 µM (inactive)
same,GI50,[18],> 100 µM (inactive)
same,GI50,[19],> 100 µM (inactive)
same,GI50,[20],> 100 µM (inactive)
same,GI50,[21],> 100 µM (inactive)
same,GI50,[22],> 100 µM (inactive)
same,GI50,[23],> 100 µM (inactive)
same,GI50,[24],> 100 µM (inactive)
same,GI50,[25],75.7 µM (inactive)
same,GI50,[26],> 100 µM (inactive)
same,GI50,[27],> 100 µM (inactive)
same,GI50,[28],> 100 µM (inactive)
same,GI50,[29],> 100 µM (inactive)
same,GI50,[30],> 100 µM (inactive)
same,GI50,[31],83.2 µM
same,GI50,[32],> 100 µM (inactive)
same,GI50,[33],> 100 µM (inactive)
same,GI50,[34],> 100 µM (inactive)
same,GI50,[35],> 100 µM (inactive)
same,GI50,[36],> 100 µM (inactive)
same,GI50,[37],> 100 µM (inactive)
same,GI50,[38],> 100 µM (inactive)
same,GI50,[39],> 100 µM (inactive)
same,GI50,[40],> 100 µM (inactive)
same,GI50,[41],84.1 µM (inactive)
same,GI50,[42],> 100 µM (inactive)
same,GI50,[43],> 100 µM (inactive)
same,GI50,[44],> 100 µM (inactive)
same,GI50,[45],57.5 µM (inactive)
same,GI50,[46],> 100 µM (inactive)
same,GI50,[47],> 100 µM (inactive)
same,GI50,[48],> 100 µM (inactive)
same,GI50,[49],> 100 µM (inactive)
same,GI50,[50],> 100 µM (inactive)
same,GI50,[51],> 100 µM (inactive)
same,GI50,[52],> 100 µM (inactive)
same,GI50,[53],> 100 µM (inactive)
same,GI50,[54],> 100 µM (inactive)
same,GI50,[55],> 100 µM (inactive)
same,GI50,[56],> 100 µM (inactive)
same,GI50,[57],> 100 µM (inactive)
CCOC(=O)/C=C(/C(=O)OCC)n1cc(C)c(=O)n(Cc2cnnn2CCCCOC(C)=O)c1=O,GI50,[1],19 µM (inactive)
same,GI50,[2],19 µM (inactive)
same,GI50,[3],> 100 µM (inactive)
same,GI50,[4],> 100 µM (inactive)
same,GI50,[5],> 100 µM (inactive)
same,GI50,[6],1.13 µM (inactive)
same,GI50,[7],15.1 µM (inactive)
same,GI50,[9],> 10 µM (inactive)
same,GI50,[10],21.8 µM (inactive)
same,GI50,[11],10.5 µM (inactive)
same,GI50,[12],15.1 µM (inactive)
same,GI50,[13],55.3 µM (inactive)
same,GI50,[14],25.2 µM (inactive)
same,GI50,[15],15.6 µM (inactive)
same,GI50,[16],48.5 µM (inactive)
same,GI50,[17],18.2 µM (inactive)
same,GI50,[18],68.5 µM (inactive)
same,GI50,[19],26.3 µM (inactive)
same,GI50,[20],3.54 µM (inactive)
same,GI50,[21],36.6 µM (inactive)
same,GI50,[22],28.7 µM (inactive)
same,GI50,[23],> 100 µM (inactive)
same,GI50,[24],64.6 µM (inactive)
same,GI50,[25],24 µM (inactive)
same,GI50,[26],32.4 µM (inactive)
same,GI50,[27],0.0906 µM (active)
same,GI50,[28],21.2 µM (inactive)
same,GI50,[29],45.5 µM (inactive)
same,GI50,[31],12.6 µM
same,GI50,[32],33.3 µM (inactive)
same,GI50,[33],44.2 µM (inactive)
same,GI50,[34],26.7 µM (inactive)
same,GI50,[35],45.2 µM (inactive)
same,GI50,[36],> 100 µM (inactive)
same,GI50,[37],13.6 µM (inactive)
same,GI50,[58],3.21 µM (inactive)
same,GI50,[38],11.2 µM (inactive)
same,GI50,[39],18.4 µM (inactive)
same,GI50,[40],22.8 µM (inactive)
same,GI50,[41],86.9 µM (inactive)
same,GI50,[42],> 100 µM (inactive)
same,GI50,[43],18.7 µM (inactive)
same,GI50,[44],30 µM (inactive)
same,GI50,[45],> 100 µM (inactive)
same,GI50,[46],19.6 µM (inactive)
same,GI50,[47],17.1 µM (inactive)
same,GI50,[49],> 100 µM (inactive)
same,GI50,[50],5.79 µM (inactive)
same,GI50,[51],19.2 µM (inactive)
same,GI50,[53],5.55 µM (inactive)
same,GI50,[54],18.4 µM (inactive)
same,GI50,[55],23.3 µM (inactive)
same,GI50,[56],16.8 µM (inactive)
same,GI50,[57],12.6 µM (inactive)
